Data: PMC9516243, “Design of stapled peptide-based PROTACs for MDM2/MDMX atypical degradation and tumor suppression” (Theranostics, 2022)
pKi: −log10 of the molar value. Positions of bridges follow the written chain, without caps; N, C: chain ends. Non-standard residues stand in square brackets, D forms with d. Residues, ends and D or L forms follow the SMILES beside them. Hyp = O=C(O)[C@@H]1C[C@@H](O)CN1; R8 = C=CCCCCCC[C@@](C)(N)C(=O)O; hLeu = CC(C)CC[C@H](N)C(=O)O; S5 = C=CCCC[C@](C)(N)C(=O)O; AEA = NCCOCC(=O)O

Tests used:
^25-109MDM2 = target: T1, ^25-109MDM2 (Homo sapiens, UniProt Q00987); experiment: FP-based competitive binding assay; conditions: MDM2 40 nM, fluorescently tagged p53 peptide 20 nM, PBS pH 7.4, 30 min room temperature; mean of three independent measurements
T1 construct: established using ^25-109MDM2, ^24-108MDMX
Description: (§1) An FP-based competitive or binding assay was established using ^25-109MDM2, ^24-108MDMX, and a fluorescently tagged p53-derived peptide as previously described. [34]-[36] For dose-dependent competitive binding experiments, MDM2 or MDMX protein (40 nM) was first incubated with TAMRA-p53 peptide (20 nM) in PBS (pH 7.4) on a Costar 96-well plate, to which a serially diluted solution of test peptide was added to a final volume of 125 μL. After 30 min of incubation at room temperature, the FP values were measured at λex = 530 nm and λem = 580 nm on a Tecan Infinite M1000 plate reader. For binding experiments, FITC-labeled SPMI-HIF2-1 (20 nM) was incubated with different concentrations of MDM2, MDMX, and VHL proteins. Curve fitting was performed using GraphPad Prism software, and Ki values were calculated as described previously. Three replicates and three independent experiments were performed.

^24-108MDMX = target: T2, ^24-108MDMX (Homo sapiens, UniProt O15151); experiment: FP-based competitive binding assay; conditions: MDMX 40 nM, fluorescently tagged p53 peptide 20 nM, PBS pH 7.4, 30 min room temperature; mean of three independent measurements
T2 construct: ^24-108MDMX, and a fluorescently tagged p53-derived peptide
T2 sequence (O15151 24-108): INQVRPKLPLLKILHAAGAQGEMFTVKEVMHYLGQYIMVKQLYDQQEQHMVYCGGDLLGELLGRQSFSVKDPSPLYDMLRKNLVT
Description: as §1

CC(=O)N[C@H](C(=O)N[C@@H](CO)C(=O)N[C@@H](Cc1ccccc1)C(=O)N[C@]1(C)CCCCCCC=CCCC[C@@](C)(C(=O)NCCOCC(=O)N[C@@H](CC(C)C)C(=O)N[C@@H](C)C(=O)N2C[C@H](O)C[C@H]2C(=O)N[C@@H](Cc2ccc(O)cc2)C(=O)N[C@@H](CCC(C)C)C(=O)N2CCC[C@H]2C(N)=O)NC(=O)[C@H](CC(C)C)NC(=O)[C@H](CC(C)C)NC(=O)[C@H](C)NC(=O)[C@H](Cc2c[nH]c3ccccc23)NC(=O)[C@H](Cc2ccc(O)cc2)NC(=O)[C@H](CCC(=O)O)NC1=O)[C@@H](C)O [SPMI-HIF2-1] (Ac-TSF[R8]EYWALL[S5][AEA]LA[Hyp]Y[hLeu]P-NH2; staple 4-11)
pKi (^25-109MDM2): 6.46 | pKi (^24-108MDMX): 6.28
